Laboratory results published in patent publication US20230414715A1, “TRAIL COMPOUNDS FOR REDUCING CANCER TREAMENT SIDE EFFECTS” (BROWN UNIVERSITY, priority 2022, published 2023).
“Also recorded” adds a separate entry of the source.

How the values were obtained:
TRAIL-/- mice = assay: Survival after whole-thorax irradiation, TRAIL-/- mice; assay type: in vivo, mouse
Method: Starting one hour before irradiation, mice were treated with either 10 mg/kg of TLY012 (D&D Pharmatech) by intraperitoneal (IP) injection or 100 mg/kg of ONC201/TIC10 (Chimerix/Oncoceutics) by oral gavage (PO) or a control gavage consisting of 20% Cremophor® EL (Sigma #238470) and 70% Dulbecco's phosphate buffered saline solution (Cytiva SH30264.02) per volume via PO (n=2/gender/treatment).

female C57B1/6 mice = assay: 48-hour post-radiation TLY012 treatment; assay type: in vivo, mouse; details: 20 Gy, 10 mg/kg twice a week, preliminary results
Excerpt: Mice were weighed twice a week, and then euthanized on day 13 post-irradiation. […] H&E-stained slides of the lungs were imaged at 20× magnification.

[1] = tested on: mRNA from mouse lung tissue; assay: NanoString nCounter PanCancer Immune Profiling panel, mRNA from mouse lung tissue; assay type: in vivo
Method: One hour before radiation mice were grouped into control or given 10 mg/kg of TLY012 via IP injection (n=3/gender/treatment). Mice were treated and weighed twice a week up until 11 days post-radiation when all mice were euthanized.
Rodent sacrifice was performed following anesthetization with 100 mg/kg ketamine and 10 mg/kg xylazine administered intraperitoneally. ˜400-600 μL blood was first collected throughcardiac puncture with a 26G ⅝″ needle through the intercostal space into the left ventricle. […] 1 mL of 2 mg/mL EDTA in PBS was injected through the right ventricle to perfuse the lungs, after which the lungs were excised, washed further in PBS, submerged in RNAlater (Sigma-Aldrich, #R0901, Missouri, USA), and flash frozen in liquid nitrogen.
Frozen lung tissue was stored long-term at −80° C. Thawing was performed over 16 hours at 4° C. Tissue homogenization was performed with Precellys Lysing Kit (Cayman Chemical Company, #16859, Michigan, USA) and a Bulley Blender Homogenizer (Next Advance, #G14-G15) prior to RNA extraction with QlAgen RNeasy kit (Qiagen, #74104, Hilden, Germany) and cleaned up with QIAgen RNeasy MinElute Cleanup kit (Qiagen, #74204, Hilden, Germany). Quality and concentration were verified by Nanodrop. Extracted RNA samples were gene expression profiled by NanoString nCounter PanCancer Immune Profiling Panel (NanoString Technologies, #XTCSO-MIP1-12, Seattle, WA) according to the manufacturer's instructions.
Nanostring data was analyzed in nSolver Advanced Analysis Software and ROSALIND. Raw data was uploaded to nSolver for automated normalization, background subtraction, and quality control (QC) check. All samples passed QC. Control mice and mice treated with TLY012 lung samples were used to construct two groups to which an unpaired t-test was run to generate the data in the volcano plot that was created in ROSALIND (FIG. 5). Differential expression was determined with p-values and Benjamini-Yekutieli adjusted p-values. Pathway scores are generated in nSolver as a summarization of expression level changes of biologically related groups of genes. Pathway scores are derived from the first Principal Components Analysis (PCA) scores (1st eigenvectors) for each sample based on the individual gene expression levels for all the measured genes within a specific pathway. The cell type score itself is calculated as the mean of the log2 expression levels for all the probes included in the final calculation for that specific cell type.

[2] = all mice, treated versus control
[3] = lung, 20 Gy, relative to control

“TLY012: N-terminal PEGylated recombinant human TRAIL; PEGylated trimeric TRAIL formulation” was tested, and the protection from lethality (TRAIL-/- mice; female TRAIL-/- mice, 15 Gy, FIG. 3B) was “protection from lethality”, the survival (TRAIL-/- mice; female TRAIL-/- mice, 18 Gy whole-thorax irradiation, FIG. 3B) was 3 weeks and the “survival / rescue from lethality” value (TRAIL-/- mice; male TRAIL-/- mice, 18 Gy chest irradiation, 10 mg/kg, FIG. 3A) was “increased survival; also recorded: rescue from lethality”. The “rescue when treatment starts 48 hours after irradiation” value (female C57B1/6 mice) was “some rescue is possible”, the “genes with statistically significant differential expression” value ([1]; TRAIL-/- mice, 20 Gy, treated versus control) was 16 and the ““Antigen Processing” pathway score” value [1, 2] was “significant increases”. For the same substance, the ““Interferon” pathway score” value [1, 2] was “significant increases”, the ““Antigen Processing” pathway score” value ([1]; female cohort) was “significant increases” and the ““Basic Cell Functions” pathway score” value ([1]; female cohort) was “decrease”. The ““Dendritic Cell Functions” pathway score” value ([1]; female cohort) was “significant increases”, the ““MHC” pathway score” value ([1]; female cohort) was “significant increases” and the “BCL6 mRNA” value [1, 3] was “downregulated”. The “CCL6 mRNA” value [1, 3] was “upregulated”, the “DOCKS mRNA” value [1, 3] was “downregulated” and the “FOXJ1 mRNA” value [1, 3] was “downregulated”. For the same substance, the “H2-Q2 mRNA” value [1, 3] was “downregulated”, the “HERC6 mRNA” value [1, 3] was “upregulated” and the “IKZF2 mRNA” value [1, 3] was “downregulated”. The “IL1RL2 mRNA” value [1, 3] was “upregulated”, the “KLRA7 mRNA” value [1, 3] was “upregulated” and the “MAPK8 mRNA” value [1, 3] was “downregulated”. The “PTGS2 mRNA” value [1, 3] was “downregulated”, the “RAET1A mRNA” value [1, 3] was “downregulated” and the “RELB mRNA” value [1, 3] was “upregulated”. For the same substance, the “RRAD mRNA” value [1, 3] was “downregulated”, the “TMEM173 mRNA” value [1, 3] was “upregulated” and the “TNFSF10 mRNA” value [1, 3] was “upregulated”.
